This is an account of results in US8765941B2 (Kino Pharma, Inc., priority 2008, dated 2014).

For series [1], the system named is intracellular HCV protein (NS3-NS4-NS5A-NS5B). Put plainly: HCV viral protein expression assay using LuHCV cells (luciferase activity). The note with it: for activity at 10 µM / activity at 20 µM: Hepatitis C virus, 48 h, read-out: luc activity (% control).
Method: As an HCV viral protein expression assay, screening was performed for compounds having anti-HCV activity using human hepatocytes with which the replication and expression of the intracellular HCV protein (NS3-NS4-NS5A-NS5B) can be evaluated through determination of luciferase activity (hereinafter, referred to as LuHCV).
LuHCV cells were plated onto 96-well plates at 5×10^3 cells/50 μL/well and then incubated overnight. Test compounds were each dissolved in dimethyl sulfoxide (DMSO) and dilution series were prepared using DMSO, if necessary. On the next day of plating of LuHCV cells, a medium containing a test compound with a concentration twice the final test concentration was added at 50 μL/well. Cells were gently cultured under culture conditions of 48 hours, 37° C., and 5% CO2 (the final concentrations of the test compounds: 0, 10, and 20 μM). At this time, analysis was made using 3 test wells for each test compound and for each concentration.
Culture medium was removed after 48 hours. Glo lysis buffer (100 μL) (Promega) was added to each well and then cells were disrupted, so that a cell extract was obtained. With the use of 50 μL of the thus obtained cell extract, 50 μL of a Bright-Glo™ Luciferase Assay System (Promega) reagent was added. Luciferase activity in the extract was determined by measuring luminescence intensity for one second using a measuring device ARVO (PerkinElmer Co., Ltd.).
Based on the thus obtained numerical values of luminescence intensity, an average value for each test compound at each concentration was calculated. The luminescence intensity percentage for each test compound was calculated based on a luminescence intensity for DMSO (used as a control for test substances) as 100%.
Culture medium was removed after 48 hours. Glo Lysis buffer (100 μL) (Promega) was added to each well and then cells were disrupted, so that a cell extract was obtained. With the use of 50 μL of the thus obtained cell extract, 50 μL of a Bright-Glo™ Luciferase Assay System (Promega) reagent was added. Luciferase activity in the extract was determined by measuring luminescence intensity for one second using a measuring device ARVO (PerkinElmer Co., Ltd.).
Based on the thus obtained numerical values of luminescence intensity, an average value for each test compound at each concentration was calculated. The luminescence intensity percentage for each test compound was calculated based on a luminescence intensity of DMSO (used as a control for test substances) as 100%.
Series [2] has as its system LuHCV cells. Put plainly: Evaluation of cell growth suppression using LuHCV cells (percentage of viable cells, reagent SF). Conditions: 48 hours, DMSO = 100%. In kind it is cell-based, human. As to the method:
At this time, as a background absorbance, measurement was also performed for wells containing test compounds (or DMSO used as a control), but containing no cells. Each of the thus obtained background numerical values was deducted from the absorbance of a cell-containing well (measured for the same compound at the same concentration). The resulting value was designated as actual measurement of number of viable cells containing no background. […] With an average value measured for DMSO used as a control test substance designated as 100%, the percentage of the number of viable cells for each test compound was calculated.
At this time, as a background absorbance, measurement was also performed for wells containing test compounds (or containing DMSO used as a control), but containing no cells. Each of the thus obtained background numerical values was deducted from the absorbance of a cell-containing well (measured for the same compound at the same concentration). The resulting value was designated as actual measurement of number of viable cells containing no background. […] By using a value measured upon addition of DMSO used as a control test substance designated as 100%, the percentage of the number of viable cells for each test compound was calculated. Table 1-2 and FIG. 2B show the percentage of the number of viable cells (cell viability (% control)) for each test compound at each concentration.

SMILES strings stand for the structures.

For the molecule `O=C(NC(=S)Nc1cc(C(F)(F)F)ccc1N1CCCCCC1)c1cccnc1` [Compound 4, N-nicotinoyl-N′[2-(azacycloheptan-1-yl)-5-(trifluoromethyl)phenyl]thiourea], in series [1], the activity at 10 µM was 65.8% and the activity at 20 µM was 44.5%. Moreover, the “viability (% control)” value in series [2] (10 μM) is recorded as 93.86 % control. In addition, in series [2] (20 μM), the “viability (% control)” value is 89.76 % control.
For the molecule `O=C(Nc1cc(C(F)(F)F)ccc1N1CCC[C@H]2CCCC[C@@H]21)c1ccncc1` (relative stereo) [Compound 19, N-[2-(trans-2-azabicyclo[4.4.0]decan-2-yl)-5-(trifluoromethyl)phenyl]isonicotinamide], in series [1], the activity at 10 µM was 51% and the activity at 20 µM worked out at 33.5%. In addition, the “viability (% control)” value in series [2] (10 μM) is 99.02 % control. Further, the “viability (% control)” value in series [2] (20 μM) is given as 91.02 % control.
Taken in the same sequence, the figures for `O=C(NC(=S)Nc1cc(C(F)(F)F)ccc1N1CCCCCCC1)c1ccoc1` [Compound 17] were 26.1%, 17.6%, 112.89 % control and 108.81 % control.
As to `O=C(NC(=O)c1cccnc1)Nc1cc(C(F)(F)F)ccc1N1CCCCCCC1` [Compound 8, N-nicotinoyl-N′-[2-(azacyclooctan-1-yl)-5-(trifluoro-methyl)phenyl]urea], the activity at 10 µM in series [1] amounted to 55.7%. Besides, the activity at 20 µM in series [1] amounted to 58%. For the same molecule, the “viability (% control)” value in series [2] (10 μM) amounted to 77.35 % control; in series [2] (20 μM), 77.81 % control.
Regarding `Cc1ccc(C(=O)NC(=S)Nc2cc(C(F)(F)F)ccc2N2CCCCCCC2)cc1` [Compound 11], in series [1], the activity at 10 µM is 35.8% and the activity at 20 µM was 29.8%. The “viability (% control)” value in series [2] (10 μM) was 89.95 % control. Moreover, the “viability (% control)” value in series [2] (20 μM) is 89.20 % control.
Taken in the same sequence, the figures for `O=C(NC(=S)Nc1cc(C(F)(F)F)ccc1F)c1cccnc1` [Compound 16, N-nicotinoyl-N′-[2-fluoro-5-(trifluoro-methyl)phenyl]thiourea] were 58.1%, 48.9%, 85.21 % control and 79.86 % control.
`FC(F)(F)c1ccc(N2CCCCC2)c(NC(=S)c2ccncc2)c1` [Compound 2, N-[2-(1-piperidinyl)-5-(trifluoromethyl)phenyl]isonicotinthioamide]: the “luciferase activity (result in words)” value in series [1] (0, 10 and 20 μM, 48 hours, LuHCV cells) is recorded as “Decreases in luciferase activity”.
`O=C(NC(=S)Nc1cc(C(F)(F)F)ccc1N1CCCCCCC1)c1ccc(F)cc1` [Compound 13, N-(4-fluorobenzoyl)-N′-[2-(azacyclooctan-1-yl)-5-(trifluoromethyl)phenyl]thiourea]: in series [1], the activity at 10 µM is 34.1% and the activity at 20 µM turned out to be 28.5%. The “viability (% control)” value in series [2] (10 μM) came out at 101.56 % control. For the same molecule, in series [2] (20 μM), the “viability (% control)” value came to 104.05 % control.
For `O=C(NC(=S)Nc1cc(C(F)(F)F)ccc1N1CCCCCCC1)c1ccncc1` [Compound 7, N-isonicotinoyl-N′-[2-(azacyclooctan-1-yl)-5-(trifluoromethyl)phenyl]thiourea] the same measures were 30.7%, 16.4%, 76.97 % control and 71.85 % control.
Taken in the same sequence, the figures for `O=C(Nc1cc(C(F)(F)F)ccc1N1CCCCCCCC1)c1ccncc1` [Compound 20, W[2-(azacyclononan-1-yl)-5-(trifluoromethyl)-phenyl]isonicotinamide] were 48.3%, 22.7%, 111.50 % control and 105.35 % control.
As for `O=C(NC(=S)Nc1cc(F)ccc1N1CCCCCCC1)c1cccnc1` [Compound 9], the activity at 10 µM in series [1] amounted to 33.6%. For the same molecule, the activity at 20 µM in series [1] is 26%. Besides, the “viability (% control)” value is 82.79 % control in series [2] (10 μM) and 73.39 % control in series [2] (20 μM).
Taken in the same sequence, the figures for `Cc1ccc(C(=O)NC(=S)Nc2cc(C(F)(F)F)ccc2N2CCCCCCC2)cn1` [Compound 10, N-(6-methylnicotinoyl)-N′-[2-(azacyclo-octan-1-yl)-5-(trifluoro-methyl)phenyl]thiourea] were 41.2%, 26.9%, 96.19 % control and 89.38 % control.
For `O=C(NC(=S)Nc1cc(C(F)(F)F)ccc1N1CC[C@H]2CCCC[C@@H]2C1)c1ccccc1` (relative stereo) [Compound 23, 1-benzoyl-3-[2-(trans-3-azabicyclo[4.4.0]decan-3-yl)-5-(trifluoromethyl)phenyl]thiourea] the same measures were 64%, 49.4%, 106.72 % control and 104.93 % control.
Turning to `COc1ccc(C(=O)NC(=S)Nc2cc(C(F)(F)F)ccc2N2CCCCCCC2)cc1` [Compound 12, N-(4-methoxybenzoyl)-N′-[2-(azacyclooctan-1-yl)-5-(trifluoromethyl)phenyl]thiourea], the activity at 10 µM in series [1] stood at 32.8%. The activity at 20 µM in series [1] was 28.6%. Also, the “viability (% control)” value was 94.69 % control in series [2] (10 μM) and 88.78 % control in series [2] (20 μM).
For `COc1ccccc1C(=O)NC(=S)Nc1cc(C(F)(F)F)ccc1N1CCCCCCC1` [Compound 15, N-(2-methoxybenzoyl)-N′-[2-(azacyclooctan-1-yl)-5-(trifluoromethyl)phenyl]thiourea] the same measures were 45.8%, 37.6%, 107.86 % control and 107.33 % control.
For `FC(F)(F)c1ccc(N2CCC[C@H]3CCCC[C@@H]32)c(NC(=S)c2ccncc2)c1` (relative stereo) [Compound 21, N-[2-(trans-2-azabicyclo[4.4.0]-decan-2-yl)-5-(trifluoromethyl)phenyl]isonicotinthioamide] the same measures were 56.8%, 34%, 94.44 % control and 93.56 % control.
As to `O=C(NC(=S)Nc1cc(C(F)(F)F)ccc1N1CCCCCCCC1)c1ccccc1` [Compound 24, 1-benzoyl-3-[2-(azacyclononan-1-yl)-5-(trifluoro-methyl)phenyl]thiourea], in series [1], the activity at 10 µM is 56.4% and the activity at 20 µM was determined as 39.4%. In series [2] (10 μM), the “viability (% control)” value turned out to be 108.20 % control. Further, in series [2] (20 μM), the “viability (% control)” value is 110.15 % control.
For the molecule `O=C(NC(=S)Nc1cc(C(F)(F)F)ccc1N1CCCCC1)c1cccnc1` [Compound 3, 1-nicotinoyl-3-[2-(1-piperidinyl)-5-(trifluoromethyl)phenyl]thiourea], in series [1], the activity at 10 µM came to 69.3% and the activity at 20 µM amounted to 43.2%. Also, the “viability (% control)” value in series [2] (10 μM) stood at 103.79 % control. In series [2] (20 μM), the “viability (% control)” value was determined as 93.82 % control.
